Test results as given in ChEMBL document CHEMBL5678818, “Discovery of potent SOS1 inhibitors that block RAS activation via disruption of the RAS-SOS1 interaction” (Proc Natl Acad Sci U S A, 2019).

Tests used:
[1] = biological target: T1, Ephrin type-B receptor 1 (Homo sapiens) (UniProt P54762); experiment: Inhibition of EPHB1 (unknown origin) assessed as residual activity at 100 nM by KINOMEscan analysis relative to control
T1 sequence (whole entry): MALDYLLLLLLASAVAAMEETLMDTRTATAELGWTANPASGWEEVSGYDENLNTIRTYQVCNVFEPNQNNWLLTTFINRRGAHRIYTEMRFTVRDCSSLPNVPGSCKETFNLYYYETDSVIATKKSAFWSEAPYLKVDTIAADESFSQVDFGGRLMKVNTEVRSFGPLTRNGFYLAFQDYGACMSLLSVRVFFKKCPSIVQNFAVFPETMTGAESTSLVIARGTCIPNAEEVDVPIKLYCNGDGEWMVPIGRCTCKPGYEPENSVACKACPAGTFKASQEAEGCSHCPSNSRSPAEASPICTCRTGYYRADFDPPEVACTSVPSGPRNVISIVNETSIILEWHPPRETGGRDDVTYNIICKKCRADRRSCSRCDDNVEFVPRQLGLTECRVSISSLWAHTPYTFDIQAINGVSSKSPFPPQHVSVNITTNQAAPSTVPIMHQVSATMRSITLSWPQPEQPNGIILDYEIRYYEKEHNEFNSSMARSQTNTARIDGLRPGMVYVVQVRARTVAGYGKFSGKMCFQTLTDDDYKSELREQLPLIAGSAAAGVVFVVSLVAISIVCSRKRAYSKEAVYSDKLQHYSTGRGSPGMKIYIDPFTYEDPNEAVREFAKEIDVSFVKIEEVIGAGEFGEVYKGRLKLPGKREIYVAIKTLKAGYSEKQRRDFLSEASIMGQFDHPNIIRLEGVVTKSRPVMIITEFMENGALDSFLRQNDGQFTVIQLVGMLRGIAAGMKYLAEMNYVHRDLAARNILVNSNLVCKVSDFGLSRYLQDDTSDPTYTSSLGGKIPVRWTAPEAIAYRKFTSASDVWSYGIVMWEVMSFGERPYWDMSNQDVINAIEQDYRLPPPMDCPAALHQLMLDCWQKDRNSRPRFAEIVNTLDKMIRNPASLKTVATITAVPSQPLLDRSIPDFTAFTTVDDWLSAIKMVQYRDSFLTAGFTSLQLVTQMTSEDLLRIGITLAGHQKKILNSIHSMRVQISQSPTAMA

[2] = biological target: Mitogen-activated protein kinase kinase kinase kinase 1 (Homo sapiens) (UniProt Q92918); experiment: Inhibition of HPK1 (unknown origin) assessed as residual activity at 100 nM by KINOMEscan analysis relative to control
Sequence of Mitogen-activated protein kinase kinase kinase kinase 1 (Homo sapiens) (Q92918 whole entry, looked up, the tested form may be a part): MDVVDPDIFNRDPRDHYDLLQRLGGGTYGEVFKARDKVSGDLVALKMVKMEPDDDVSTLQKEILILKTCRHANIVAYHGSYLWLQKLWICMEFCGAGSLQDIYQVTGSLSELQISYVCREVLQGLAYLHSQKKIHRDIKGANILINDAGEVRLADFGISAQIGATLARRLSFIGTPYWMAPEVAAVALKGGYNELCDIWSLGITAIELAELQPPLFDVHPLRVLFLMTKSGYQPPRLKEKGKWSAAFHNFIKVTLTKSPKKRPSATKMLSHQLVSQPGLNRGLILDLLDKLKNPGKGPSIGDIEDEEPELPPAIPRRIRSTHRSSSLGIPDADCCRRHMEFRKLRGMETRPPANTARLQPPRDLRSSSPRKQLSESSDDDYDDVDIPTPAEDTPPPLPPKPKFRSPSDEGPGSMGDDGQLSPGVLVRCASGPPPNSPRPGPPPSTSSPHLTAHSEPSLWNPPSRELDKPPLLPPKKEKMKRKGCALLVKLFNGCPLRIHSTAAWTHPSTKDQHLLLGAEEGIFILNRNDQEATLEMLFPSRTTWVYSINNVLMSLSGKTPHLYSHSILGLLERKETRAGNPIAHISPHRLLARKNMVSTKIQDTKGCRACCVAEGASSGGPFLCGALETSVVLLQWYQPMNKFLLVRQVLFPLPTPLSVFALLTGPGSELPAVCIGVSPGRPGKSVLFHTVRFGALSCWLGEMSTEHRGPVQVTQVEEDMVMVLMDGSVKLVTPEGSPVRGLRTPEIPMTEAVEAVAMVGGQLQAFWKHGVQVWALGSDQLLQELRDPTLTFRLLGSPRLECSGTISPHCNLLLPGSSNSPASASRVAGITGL

[3] = biological target: Phosphatidylinositol 4-phosphate 3-kinase C2 domain-containing subunit beta (Homo sapiens) (UniProt O00750); experiment: Inhibition of PIK3C2B (unknown origin) assessed as residual activity at 100 nM by KINOMEscan analysis relative to control
Sequence of Phosphatidylinositol 4-phosphate 3-kinase C2 domain-containing subunit beta (Homo sapiens) (O00750 whole entry, the tested form may be a part): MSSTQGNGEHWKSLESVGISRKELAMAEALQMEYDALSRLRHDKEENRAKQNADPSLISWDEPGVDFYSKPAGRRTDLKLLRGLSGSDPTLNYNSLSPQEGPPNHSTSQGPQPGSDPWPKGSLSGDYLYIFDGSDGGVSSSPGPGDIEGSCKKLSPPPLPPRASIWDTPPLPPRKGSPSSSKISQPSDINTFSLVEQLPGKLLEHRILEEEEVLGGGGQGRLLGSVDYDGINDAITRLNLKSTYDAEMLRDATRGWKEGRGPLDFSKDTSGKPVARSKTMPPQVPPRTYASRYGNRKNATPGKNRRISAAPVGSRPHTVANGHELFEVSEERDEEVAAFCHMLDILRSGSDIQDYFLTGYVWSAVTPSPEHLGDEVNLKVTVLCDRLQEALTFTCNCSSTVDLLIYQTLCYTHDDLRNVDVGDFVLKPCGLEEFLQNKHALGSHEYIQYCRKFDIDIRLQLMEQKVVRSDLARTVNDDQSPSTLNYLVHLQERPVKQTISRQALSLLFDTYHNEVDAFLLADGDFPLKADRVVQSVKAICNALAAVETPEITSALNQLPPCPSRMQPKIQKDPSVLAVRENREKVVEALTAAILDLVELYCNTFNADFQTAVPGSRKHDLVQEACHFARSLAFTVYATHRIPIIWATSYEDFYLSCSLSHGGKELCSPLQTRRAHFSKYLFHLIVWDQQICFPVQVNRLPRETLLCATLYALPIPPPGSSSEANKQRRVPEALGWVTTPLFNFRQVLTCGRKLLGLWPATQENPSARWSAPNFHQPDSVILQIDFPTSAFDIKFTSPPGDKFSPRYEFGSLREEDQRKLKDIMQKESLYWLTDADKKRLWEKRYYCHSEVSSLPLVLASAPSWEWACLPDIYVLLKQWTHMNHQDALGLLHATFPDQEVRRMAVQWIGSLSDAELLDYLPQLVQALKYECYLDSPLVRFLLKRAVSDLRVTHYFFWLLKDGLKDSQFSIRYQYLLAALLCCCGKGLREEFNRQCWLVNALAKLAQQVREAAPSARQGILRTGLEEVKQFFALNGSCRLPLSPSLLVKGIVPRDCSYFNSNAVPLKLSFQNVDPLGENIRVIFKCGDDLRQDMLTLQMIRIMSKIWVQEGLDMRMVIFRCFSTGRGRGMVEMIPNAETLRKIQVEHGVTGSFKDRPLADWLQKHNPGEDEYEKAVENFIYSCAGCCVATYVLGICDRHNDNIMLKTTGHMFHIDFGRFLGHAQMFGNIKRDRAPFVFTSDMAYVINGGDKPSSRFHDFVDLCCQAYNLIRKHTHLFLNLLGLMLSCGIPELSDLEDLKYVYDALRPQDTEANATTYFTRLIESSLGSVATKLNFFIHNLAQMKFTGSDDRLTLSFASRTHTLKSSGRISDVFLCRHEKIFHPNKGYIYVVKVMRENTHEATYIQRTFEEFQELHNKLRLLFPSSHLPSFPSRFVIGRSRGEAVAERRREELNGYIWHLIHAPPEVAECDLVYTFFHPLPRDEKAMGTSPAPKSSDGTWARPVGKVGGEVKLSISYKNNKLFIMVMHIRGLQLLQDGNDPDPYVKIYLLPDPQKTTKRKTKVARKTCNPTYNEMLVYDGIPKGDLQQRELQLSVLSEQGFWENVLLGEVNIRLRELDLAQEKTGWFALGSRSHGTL

[4] = biological target: Ribosomal protein S6 kinase alpha-6 (Homo sapiens) (UniProt Q9UK32); experiment: Inhibition of N-terminal RSK4 […] domain 1 (unknown origin) assessed as residual activity at 100 nM by KINOMEscan analysis relative to control
Sequence of Ribosomal protein S6 kinase alpha-6 (Homo sapiens) (Q9UK32 whole entry): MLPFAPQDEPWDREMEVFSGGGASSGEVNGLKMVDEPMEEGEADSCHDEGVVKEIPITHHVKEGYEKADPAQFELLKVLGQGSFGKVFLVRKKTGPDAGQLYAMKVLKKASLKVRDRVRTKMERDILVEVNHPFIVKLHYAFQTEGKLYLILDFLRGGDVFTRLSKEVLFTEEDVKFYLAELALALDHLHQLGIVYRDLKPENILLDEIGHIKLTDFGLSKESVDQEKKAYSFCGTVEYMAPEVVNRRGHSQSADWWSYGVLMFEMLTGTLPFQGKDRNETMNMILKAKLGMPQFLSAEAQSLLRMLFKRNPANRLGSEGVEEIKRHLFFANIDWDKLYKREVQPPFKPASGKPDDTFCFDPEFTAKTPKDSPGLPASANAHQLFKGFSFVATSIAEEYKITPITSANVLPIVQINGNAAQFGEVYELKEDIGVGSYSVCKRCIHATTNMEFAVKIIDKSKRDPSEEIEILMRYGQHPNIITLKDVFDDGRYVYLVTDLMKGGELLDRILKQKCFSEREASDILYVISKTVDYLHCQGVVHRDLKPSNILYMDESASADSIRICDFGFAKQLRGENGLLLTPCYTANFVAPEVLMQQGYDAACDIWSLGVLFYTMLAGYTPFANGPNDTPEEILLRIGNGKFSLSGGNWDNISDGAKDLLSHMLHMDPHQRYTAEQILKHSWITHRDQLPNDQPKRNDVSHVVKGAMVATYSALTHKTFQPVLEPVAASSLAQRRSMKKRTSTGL

[5] = biological target: T2, NUAK family SNF1-like kinase 2 (Homo sapiens) (UniProt Q9H093); experiment: Inhibition of SNARK (unknown origin) assessed as residual activity at 100 nM by KINOMEscan analysis relative to control
T2 sequence (whole entry): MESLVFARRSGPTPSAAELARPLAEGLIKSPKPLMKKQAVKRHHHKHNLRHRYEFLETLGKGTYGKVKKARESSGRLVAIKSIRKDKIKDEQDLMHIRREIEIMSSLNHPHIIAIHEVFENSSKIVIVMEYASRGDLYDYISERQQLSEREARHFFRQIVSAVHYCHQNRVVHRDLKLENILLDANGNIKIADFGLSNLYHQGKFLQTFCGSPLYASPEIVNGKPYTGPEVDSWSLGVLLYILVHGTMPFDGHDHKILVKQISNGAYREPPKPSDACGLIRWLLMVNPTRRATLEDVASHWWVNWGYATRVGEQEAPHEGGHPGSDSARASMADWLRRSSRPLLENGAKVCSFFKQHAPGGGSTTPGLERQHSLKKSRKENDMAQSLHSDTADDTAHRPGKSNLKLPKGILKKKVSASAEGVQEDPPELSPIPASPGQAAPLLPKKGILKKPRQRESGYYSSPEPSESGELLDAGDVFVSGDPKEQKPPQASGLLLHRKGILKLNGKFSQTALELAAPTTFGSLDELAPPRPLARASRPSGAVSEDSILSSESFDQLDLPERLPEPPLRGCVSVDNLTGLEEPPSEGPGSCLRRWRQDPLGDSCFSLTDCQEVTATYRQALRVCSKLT

[6] = biological target: T3, Serine/threonine-protein kinase TAO1 (Homo sapiens) (UniProt Q7L7X3); experiment: Inhibition of TAOK1 (unknown origin) assessed as residual activity at 100 nM by KINOMEscan analysis relative to control
T3 sequence (whole entry): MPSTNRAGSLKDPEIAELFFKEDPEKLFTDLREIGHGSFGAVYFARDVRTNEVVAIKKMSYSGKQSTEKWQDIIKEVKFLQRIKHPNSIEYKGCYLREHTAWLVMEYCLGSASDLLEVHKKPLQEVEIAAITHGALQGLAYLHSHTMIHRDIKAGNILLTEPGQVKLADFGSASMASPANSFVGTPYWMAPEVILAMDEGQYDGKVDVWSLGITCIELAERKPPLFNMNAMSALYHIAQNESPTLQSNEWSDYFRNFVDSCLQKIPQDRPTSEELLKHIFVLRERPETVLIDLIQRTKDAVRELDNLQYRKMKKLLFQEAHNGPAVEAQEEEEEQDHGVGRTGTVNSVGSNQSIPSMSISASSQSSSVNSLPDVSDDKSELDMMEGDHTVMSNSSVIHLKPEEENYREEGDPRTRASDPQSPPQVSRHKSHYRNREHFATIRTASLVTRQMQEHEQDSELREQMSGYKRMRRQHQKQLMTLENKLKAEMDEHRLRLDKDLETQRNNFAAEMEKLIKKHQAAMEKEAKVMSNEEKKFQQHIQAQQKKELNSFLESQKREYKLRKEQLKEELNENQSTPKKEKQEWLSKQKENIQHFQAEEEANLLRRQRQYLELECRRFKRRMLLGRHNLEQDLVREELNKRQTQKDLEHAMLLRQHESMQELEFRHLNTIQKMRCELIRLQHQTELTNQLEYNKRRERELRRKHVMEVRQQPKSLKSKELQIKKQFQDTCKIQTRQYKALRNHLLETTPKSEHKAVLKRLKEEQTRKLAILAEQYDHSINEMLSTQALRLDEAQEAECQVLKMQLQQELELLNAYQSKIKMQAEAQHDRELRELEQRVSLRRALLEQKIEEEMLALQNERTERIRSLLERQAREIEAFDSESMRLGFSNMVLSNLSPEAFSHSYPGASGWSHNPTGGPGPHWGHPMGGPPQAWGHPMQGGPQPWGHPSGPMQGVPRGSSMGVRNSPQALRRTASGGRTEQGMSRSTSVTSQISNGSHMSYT

COc1cc2ncnc(N[C@H](C)c3cccc4ccccc34)c2cc1OC
Activity [1]: 83%
Activity [2]: 81%
Activity [3]: 81%
Activity [4]: 94%
Activity [5]: 92%
Activity [6]: 88%
